Experimental data from patent US20160256472A1, “COMPOSITIONS AND METHODS OF ADMINISTERING SAME” (PALMAYA PTY LTD, priority 2013, published 2016).
“Also recorded” adds a separate entry of the source.

Tests used:
[1] = in vivo; cited from earlier work
[2] = cited from earlier work
[3] = test system: craving and craving anxiety for smoking, alcohol or drug use; experiment: Pilot study case reports: craving and craving anxiety after rapid (nasal/sublingual) delivery of micro-doses; assay type: in vivo, human; conditions: Example 7: bupropion 250 micrograms added, nasal delivery
Description: About 40-50 minutes later the craving anxiety for smoking started to climb.
Their craving for smoking and alcohol were linked making smoking more severe during times of alcohol use.
This profound change depends on them giving themself one or two doses before getting out of bed in the morning as this is the most severe craving in the day.
They averaged 20 doses per day.

[4] = Oral naltrexone absorption and presence in blood stream; conditions: standard oral administration, one off dose of 50 mg per day
Source text: As with all addictions, craving anxiety builds and is then reduced at the time of drug use or when the habit is repeated. The cycle then repeats itself. Craving may present itself with anxiety or in some cases presents itself where the individual places himself in a risky situation or searches for the substance or opportunity for the substance or event.

smoking addiction = conditions: Cochrane review; cited from earlier work
[5] = oral dosage form, 50 mg per day; cited from earlier work

CCOC(=O)c1ncn2c1CN(C)C(=O)c1cc(F)ccc1-2 [flumazenil]
half-life [1]: less than one | side effects ([2]; intravenous flumazenil, literature): panic attacks or fitting | safe dose ([2]; intravenous injection, recorded by Mims): up to 100 mg

CC(NC(C)(C)C)C(=O)c1cccc(Cl)c1 (stereo not shown) [bupropion]
effect of bupropion on the effectiveness of the flumazenil/naltrexone combination [3]: maximise the effectiveness

O=C1CC[C@@]2(O)[C@H]3Cc4ccc(O)c5c4[C@@]2(CCN3CC2CC2)[C@H]1O5 [naltrexone]
time naltrexone is undetectable in the blood stream [4]: 18 hours a day | efficacy in smoking addiction / smoking cessation (smoking addiction): does not give any evidence of smoking cessation; also recorded: not effective | time after administration at which oral naltrexone disappears from the blood stream [5]: six
